Holding throughout (format): cell-based
Data set [1] has as its system latently HIV-1 infected J89GFP T cells. Description: HIV-1 reactivation / priming in latently HIV-1 infected J89GFP T cells (GFP, flow cytometry, HTS). The method, then:
Flow cytometry. Infection levels in the cell cultures were monitored by flow cytometric (FCM) analysis of GFP expression. […] Cell sorting experiments were performed using a FACSAria™ Flow Cytometer (Becton&Dickinson). Data analysis was performed using either CellQuest (Becton&Dickinson) or GUAVA Express (GUAVA Technologies, Inc.).

For data set [2], the system named is latently HIV-2 infected J2574 reporter T cells. In words: Priming of latent HIV-2 infection in J2574 reporter T cells infected with HIV-2 7312A.
Protocol: J2574 reporter T cells were infected with HIV-2 7312A and a latently infected cell population was established (>90% latently infected cells). […] Reactivation levels were determined 24 hours post HRF activation by quantifying the level of GFP-positive cells using flow cytometric analysis.
J2574 reporter T cells were generated by retrovirally transducing Jurkat T cells with a HIV-1 reporter construct (p2574) in which the HIV-1 LTR controls the expression of GFP. The HIV-1 LTR and the GFP gene are separated by a 2,500 base pair (bp) spacer element. Lentiviral particles were produced by transfecting 293T cells with p2574 and supplying gag-pol-rev-tat in trans. VSV-G was used as viral envelope protein. Following lentiviral transduction of Jurkat cells, all cells that spontaneously expressed GFP were removed by cell sorting. The GFP-negative population was then activated with PMA to identify all cells that would harbor an inducible LTR-GFP-LTR integration event. Cells that turned GFP-positive following stimulation were again selected by cell sorting. GFP expression in this population ceased after a few days leaving a population of GFP-negative reporter cells. The amount of founder cells for this population is calculated to represent >50,000 individual integration events.
To determine the ability of dactinomycin to prime a latent HIV-2 infection, a latently HIV-2 infected population of GFP reporter T cells was tested. Briefly, to create the latent HIV-2 infected population, J2574 reporter cells were infected with HIV-2 7312A and a population of latently HIV-2 infected cells was generated by removing the actively infected, GFP-positive cells using a fluorescence activated cell sorter.
Data set [3] concerns latently HIV-1 infected CA5 T cells. The procedure: (§1) Infection levels in the cell cultures were monitored by flow cytometric analysis of EGFP expression. Flow cytometric analysis was performed on a GUAVA EasyCyte (Millipore; Billerica, Mass.), or a LSRII (Becton & Dickinson; Franklin Lakes, N.J.).
Bacterial growth. Bacteria from various sources were isolated on TSA II agar plates containing 5% sheep blood. Bacterial isolates were then grown in RPMI 1640 medium supplemented with 10% FBS. After two days of incubation at 37° C. bacteria were pelleted and resuspended in RPMI medium to an optical density (OD600) of 8, aliquoted and frozen at −80° C. Unless otherwise indicated, Massilia timonae was grown in RPMI 1640 medium supplemented with 10% FBS. Typically, medium was inoculated with Massilia timonae from frozen stocks to an OD600 of 0.01. After 48 hours at 37° C., the culture was centrifuged at 3200 g to separate bacteria from the culture medium. Bacteria were resuspended in fresh medium to an OD600 of 8 and frozen to be used as references and stock cultures. The supernatant was then centrifuged at 10,000 g for 20 minutes and sterilized by passage through a 0.2 μm PVDF filter with low protein binding ability. HRF activity was determined by its ability to reactivate latent HIV-1 infection in CA5 cells. Only supernatants of which 6 μl reactivated infection in at least 60% of CA5 cells were used to study HRF properties.
Flow cytometry. Infection levels in the cell cultures were monitored by flow cytometric (FCM) analysis of GFP expression. FCM analysis was performed on a GUAVA EasyCyte (GUAVA Technologies, Inc.; Millipore; Billerica, Mass.) and a BD FACSCalibur or a LSRII (Becton & Dickinson; Franklin Lakes, N.J.). Cell sorting experiments were performed using a FACSAria™ Flow Cytometer (Becton&Dickinson). Data analysis was performed using either CellQuest (Becton&Dickinson) or GUAVA Express (GUAVA Technologies, Inc.).
To identify the optimal concentration of dactinomycin, CA5 T cells were pretreated with increasing concentrations of dactinomycin (0.0001 and 1 μg/ml), and then left untreated or stimulated with a sub-optimal concentration of HRF or TNF-α. Representative results for stimulation with HRF are depicted in FIG. 3. The chosen HRF concentration has only minimal HIV-1 reactivating effect by itself (15% reactivation over background). Twenty four hours after activator addition, levels of HIV-1 reactivation were determined as the percentage of GFP-positive cells using flow cytometric analysis, which allowed for the simultaneous determination of cell viability. […] Optimal pretreatment time was 18 hours. Maximum reactivation effects were seen 48 hours after stimulation.

Data set [4] has the same test system. The source holds these as a separate data set.
The subject of data set [5] is cell culture. Description: Cytotoxicity in cell culture and therapeutic index. The text has this:
The HRFs provided herein show little to no cytotoxicity and have a therapeutic index greater than 300. A therapeutic index is a comparison of the amount of a therapeutic agent that causes a therapeutic effect to the amount that causes death. The therapeutic index is a ratio given by the lethal dose of a drug or agent for 50% of the population (LD50) divided by the minimum effective therapeutic dose for 50% of the population (ED50). A high therapeutic index is preferable.

The subject of data set [6] is HIV-1 LTR. In words: Tat-independent activation of integrated LTR-GFP construct in NOMI reporter T cells. The settings on record: 24 hours. The procedure: FIGS. 6A-6C show HRF triggers suboptimal functional induction of NF-κB dependent gene expression. […] The HIV-1 reactivating kinetics were determined by stimulating CA5 T cells with optimal concentrations of HRF, phorbol 12-myristate 13-acetate (PMA) and tumor necrosis factor-α (TNF-α) and analyzing HIV-1 reactivation as a function of EGFP-expression over a period of 48 hours. Data for all agents are depicted as the percentage of EGFP-positive cells in the total cell population. […] To test the ability of HRF to mediate Tat-independent activation of the HIV-1 LTR, NOMI cells (HIV-1 reporter cell line with an integrated LTR-EGFP construct) were stimulated with increasing concentrations of PMA (0.01-10 ng/ml), TNF-α (0.003-30 μg/ml) and HRF supernatant (0.3-100 μl). The level of LTR-induction was then measured as EGFP-expression detectable after 24 hours as determined by flow cytometric analysis. Arrows indicate the concentrations at which the respective stimulus would have triggered full HIV-1 reactivation in the latently HIV-1 infected CA5 T cell line. […] 293T cells were transfected with several NF-κB dependent promoter constructs and then stimulated with either TNF-α (10 μg/ml) or HRF (25 μl). Promoter induction was measured as total EGFP expression. (NF-κB:pNF-κB-d2EGFP; LTR:HIV-1 LTR-GFP; IL-8:pIL-8 GFP; TNF:human TNF-GFP; MSCV:murine stem cell virus LTR driven GFP; no NF-κB responsive elements).
As the NF-κB pathway has been recognized as vital to HIV-1 activation, the ability of HRF to trigger NF-κB activation was investigated. It was initially determined that HRF had the ability to stimulate Tat independent activation of an integrated LTR-GFP construct in NOMI reporter T cells.

The test system of data set [7] is latently HIV-1 infected reporter T cell lines. The procedure: FIGS. 1A and 1B show culture supernatants from Massilia timonae reactivate latent HIV-1 infection. […] Untreated control cells and HRF-treated cells were subjected to flow cytometric analysis to determine enhanced green fluorescent protein (EGFP) expression as a direct and quantitative marker of HIV-1 expression 24 hours post stimulation. FSC/SSC dot plots are represented to evaluate cell viability as a function of changes in the FSC (cell size)-SSC (granularity) phenotype of the cells. FIG. 1B is a histogram showing the reproducibility of the observed HIV-1 reactivation. Three independent preparations of HRF (batches HRF1-3) on four different latently infected T cell lines (5F3, 8E12, CA5 and 12D4) were tested. The percentage of EGFP positive cells following stimulation is depicted in the histogram. Cell culture supernatants of Pseudomonas aeruginosa cultures, grown under similar conditions, were used as specificity controls.
as §1

Values joined by “and” are separate entries in the source; they are usually repeats but may differ in a detail not shown here. Equal values may be shown once. *1 amine or outer side, *2 acyl side, *3 side chain or, on linkers, in order; H or OH if unused. Where a SMILES comes first, the peptide text is derived from it. Bridges are numbered along the chain shown (N, C = ends). Roman numbers before positions name the chains, in order. [ ]: non-standard residue; d: D form. Actinocin(9to1) = Cc1c2oc3c(C)ccc(C(=O)[*:1])c3nc-2c(C(=O)[*:2])c(N)c1=O; NMeV = CN[C@H](C(=O)O)C(C)C; Sar = CNCC(=O)O Where only a bound is given, the exact number is not on record here.

On to `Cc1c2oc3c(C)ccc(C(=O)N[C@@H]4C(=O)N[C@H](C(C)C)C(=O)N5CCC[C@H]5C(=O)N(C)CC(=O)N(C)[C@@H](C(C)C)C(=O)O[C@@H]4C)c3nc-2c(C(=O)N[C@@H]2C(=O)N[C@H](C(C)C)C(=O)N3CCC[C@H]3C(=O)N(C)CC(=O)N(C)[C@@H](C(C)C)C(=O)O[C@@H]2C)c(N)c1=O` [dactinomycin] (I: T[dV]P[Sar][NMeV] / II: T[dV]P[Sar][NMeV]; ester I:1-I:C, II:1-II:C; linker I:N-II:N via Actinocin(9to1)), for which the “priming of latent HIV-1 infection for reactivation” value in data set [1] (in combination with sub-optimal TNF-α) is given as “potently primed latent HIV-1 infection for reactivation”. For the same molecule, the “HIV-1 reactivating capacity by itself” value in data set [1] (relative to latently infected control cells) is “did not exhibit HIV-1 reactivating capacity by itself”. In data set [2] (18 hours pretreatment, sub-optimal HRF), the “concentration range that efficiently primed latent HIV-2 infection for reactivation” value was 2 to 8 ng/mL. The HIV-2 reactivation levels entry in data set [2] (costimulation: dactinomycin pretreatment plus sub-optimal HRF) is reported as “up to 90%”. Further, the “priming effect on HIV-1 reactivation by sub-optimal dose of HRF” value in data set [3] (CA5 cells pretreated with increasing concentrations) is reported as “strong priming effect”. For the same molecule, in data set [3] (pretreatment, then sub-optimal HRF or TNF-α, both T cell lines), the “concentration of optimal priming activity” value was “about 4 ng/ml and ~3.18 nM”. Moreover, the “priming effects with low concentrations of TNF-α or PMA as reactivating agents” value in data set [4] was “Priming effects of dactinomycin were also observed”. Also, the “priming effect for reactivation by TNF-α” value in data set [4] (CA5 cells, same sense integration, 4 ng/ml, 18 hours pretreatment) is given as “exerted its priming effect in each integration scenario”. In data set [4] (observed at the onset of drug toxicities), the “concentrations acting as inhibitor of HIV-1 expression and reactivation” value is no less than 10 ng/mL. Besides, the “concentrations at which a priming effect was observed” value in data set [4] (pretreatment, then sub-optimal HRF or TNF-α) was no less than 0.5 ng/mL.

B1: HRF: flagellin polypeptide from Massilia timonae (SEQ ID NO:10), used as bacterial culture supernatant (protein)
chain: MASVINTNVPSLNSQRNLSTSQAQLNTSIQRLSSGMRINSAKDDAAGLAISDRMNSQIKGMTQATRNANDGVSMAQTAEGALSSSGDILQRIRELAVQSSNSSNSASDRKALQTEVTQLSSELNRIANTTEFNGQKLMDGTLGTANFQVGANAGQLISMTGANFNTSVYGNNQIAGDAAKAAATTSAAATGAFTISGYLGTSAAINTTDADTAKTIAASINNVTGDTGVTATARTDSFLKSAGGAHTMSLASDNSGTGEAVDISFTVGDGGDTADDYAAAISAFNAQTAKTGVTAEYDAVEKGLKLTNSAGENISLTNKAGSADIDMDTYAADGALMASALTLEAGDVGVANGRVTMDSEKSFSVAEGTDTGFELADSSALKSVAKIDISDFEGAQEAIKVADAALSAVNSQRAEYGALQSRFESAISNLSSSTENLSASRSRIVDTDFAAETAKMTRGQILQQAGTSMLAQANSLPNGVLSLLRG
Take B1: in data set [5], the “cytotoxicity in cell culture” value was “far less cytotoxic”. The molecule further returned a therapeutic index in data set [5] (LD50/ED50) greater than 300. In addition, the “Tat-independent activation of integrated LTR-GFP construct (GFP expression)” value in data set [6] is reported as “modest increase in GFP expression”. Besides, the “HIV-2 reactivation (cells)” value in data set [2] (sub-optimal dose of HRF by itself) is reported as 10%. For the same molecule, the “cell viability (flow cytometric FSC/SSC analysis)” value in data set [7] (culture supernatant on latently infected reporter T cell lines) is “No effect on cell viability”. Also, in data set [7] (four latently infected reporter T cell lines, culture supernatant), the HIV-1 reactivation result was “efficiently reactivate latent HIV-1 infection”. Also, the “HIV-1 reactivation over background” value in data set [3] (sub-optimal HRF concentration by itself) worked out at 15%. The “efficiency of HIV-1 reactivation” value in data set [4] (compared with Salmonella typhimurium flagellin) is reported as “same efficiency as Salmonella typhimurium flagellin”. Further, the “potency of activating latent HIV-1 provirus” value in data set [4] (compared with TNFα or PMA) was “potency comparable to that of TNFα or PMA”.

The record behind these values is US20140295012A1, “LATENT HUMAN IMMUNODEFICIENCY VIRUS REACTIVATION” (priority 2011, published 2014).
